From ChEMBL document CHEMBL1201862, “PubChem BioAssay data set” (2004)
Active and inactive are the calls of the source.

Tests used:
[1] = target: G-protein coupled receptor 183 (Homo sapiens, UniProt P32249); test: SAR confirmation of small molecule antagonists of the EBI2 receptor via a luminescent beta-arrestin assa.; type: functional
[2] = P. falciparum Dd2 growth inhibitors, dose response, SYBR Green, dry powder samples, set 4 (AID 1159572); type: functional, cell-based
[3] = HeLa 2N DNA content increase, dose response, cell-based, IC50 (AID 1117349); type: functional
[4] = HeLa 4N DNA content increase, dose response, cell-based, IC50 (AID 1117351); type: functional
[5] = M. tuberculosis H37Rv growth inhibitors, H37Rv strain (AID 1626); type: functional
[6] = cytotoxicity in A549 cells, dose response, cytotoxicity control, cell-based, CellTiter-Glo luminescence, cherry-pick (AID 743484); type: functional
[7] = cytotoxicity in HepG2 cells, dose response, cytotoxicity control, cell-based, CellTiter-Glo luminescence, cherry-pick, set 4 (AID 743480); type: functional
Transthyretin = Transthyretin (Homo sapiens, UniProt P02766); test: Luminescence-based cell-based high throughput dose response assay to identify activators of Transthyretin (TTR) transcription.; type: functional
[8] = Artemis endonuclease inhibitor potency, dose response, biochemical, fluorescence intensity (AID 720701); type: functional;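 also: Artemis endonuclease enzyme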
[9] = Luminescence-based cell-based high throughput dose response assay to identify activators of the DAF-12 from the parasite S. stercoralis (ssDAF-12).; type: functional
[10] = target: T1, Oxysterols receptor LXR-beta (Homo sapiens, UniProt P55055); test: LXR agonists, Gal4 luciferase reporter, dose response, counter-screen for ssDAF-12 agonist project, cell-based, luminescence, HEK293, S. stercoralis campaign (AID 720737); type: functional; conditions: read-out: IC50 (the source's name)
T1 sequence (P55055 whole entry): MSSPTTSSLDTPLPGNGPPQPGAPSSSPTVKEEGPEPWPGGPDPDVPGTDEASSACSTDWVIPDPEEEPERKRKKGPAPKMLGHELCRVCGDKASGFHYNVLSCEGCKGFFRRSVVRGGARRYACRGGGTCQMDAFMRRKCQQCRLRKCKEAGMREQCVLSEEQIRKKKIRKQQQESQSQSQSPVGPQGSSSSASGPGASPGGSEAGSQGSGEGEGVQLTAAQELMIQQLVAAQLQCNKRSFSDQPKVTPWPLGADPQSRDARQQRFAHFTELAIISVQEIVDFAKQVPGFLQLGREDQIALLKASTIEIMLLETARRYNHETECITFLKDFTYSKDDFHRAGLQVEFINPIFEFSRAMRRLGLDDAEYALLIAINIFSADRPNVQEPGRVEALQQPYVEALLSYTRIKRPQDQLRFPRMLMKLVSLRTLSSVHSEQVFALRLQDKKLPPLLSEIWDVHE

[11] = target: T1, Oxysterols receptor LXR-beta; type: functional, cell-based
cells [12] = test: cells
[13] = THP-1 cell cytotoxicity, dose response, cytotoxicity control for Vif-APOBEC3G degradation inhibitor project, THP-1 cells (AID 1117359); type: functional; conditions: Human immunodeficiency virus 1, THP-1
Bcl-2-related protein A1 [14] = target: T2, Bcl-2-related protein A1 (Mus musculus, UniProt Q07440); test: Bfl-1 inhibitors, primary screen, biochemical, fluorescence polarization, FITC-Bid, mouse (AID 432)
T2 sequence (Q07440 whole entry): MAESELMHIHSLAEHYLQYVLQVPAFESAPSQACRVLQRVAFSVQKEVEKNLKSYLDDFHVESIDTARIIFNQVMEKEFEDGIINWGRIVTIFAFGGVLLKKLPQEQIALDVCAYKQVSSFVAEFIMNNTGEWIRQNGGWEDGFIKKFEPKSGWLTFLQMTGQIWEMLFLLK

Bcl-2-related protein A1 [15] = target: T2, Bcl-2-related protein A1; test: Bfl-1 inhibitors blocking BH3 peptide binding, confirmation, biochemical, TR-FRET, mouse Bfl-1 (AID 621);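 also: TR-FRET binding of GST-Bfl-1 to FITC-labelled Bid peptide via terbium antibody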
Heat shock protein HSP90 = Heat shock protein HSP90 (Homo sapiens, UniProt P07900+P08238); test: tumor Hsp90 inhibitor potency, dose response (AID 712); type: functional
[16] = A549 cell cytotoxicity, dose response, cytotoxicity control, 24 h, CellTiter-Glo luminescence, cherry-picks (AID 1053115); type: functional, cell-based; conditions: A549, 24 h
[17] = P. falciparum Dd2 growth inhibitors, dose response, SYBR Green, cherry-picked samples (AID 1159567); type: functional, cell-based
[18] = target: T3, Low molecular weight phosphotyrosine protein phosphatase (Homo sapiens, UniProt P24666); test: LMPTP phosphatase inhibitors, dose response, biochemical, OMFP substrate, fluorescence intensity, set 2 (AID 743307); type: functional
T3 sequence (P24666 whole entry): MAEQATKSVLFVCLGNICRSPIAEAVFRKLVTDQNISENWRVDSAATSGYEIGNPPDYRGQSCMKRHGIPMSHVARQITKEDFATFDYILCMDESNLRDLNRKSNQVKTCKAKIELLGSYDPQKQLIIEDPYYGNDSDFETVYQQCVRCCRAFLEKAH

[19] = target: T3, Low molecular weight phosphotyrosine protein phosphatase; test: LMPTP phosphatase inhibitors, colorimetric pNPP readout, dose response, orthogonal assay, biochemical, absorbance, pNPP substrate, LMPTP-A isoform, set 2 (AID 743308); type: functional
[20] = A549 cell cytotoxicity, dose response, cytotoxicity control, plate reader, dry powder, set 6 (AID 743312); type: functional, cell-based
cells [21] = conditions: HEK293
[22] = Luminescent dose response cell-based high throughput screening assay for inhibitors of the Janus kinase 2 mutant JAK2V617F. [Related pubchem assays: 1446 (Primary screen.), 1521 (Confirmation assay.), 1486 (Counter screen.)]; type: functional
[23] = target: Luciferin 4-monooxygenase (Photinus pyralis, UniProt P08659); test: firefly luciferase enzyme inhibitors, dose response, biochemical, luminescence (AID 1891)
[24] = Luminescence Cell-Based Dose Confirmation HTS to Identify Inhibitors of Platelet Dense Granule Release. [Related pubchem assays: 1663 (Primary HTS), 1678 (Summary of Project)]; type: functional
[25] = microbe, parasite or virus in culture; type: functional; conditions: Mycobacterium tuberculosis
[26] = target: T4, Sphingosine 1-phosphate receptor 4 (Homo sapiens, UniProt O95977); test: Late stage fluorescence dose response cell-based screening assay for antagonists of the Sphingosine 1-Phosphate Receptor 4 (S1P4). [Related pubchem assays: 1524 (Confirmation screen (S1P4 antagonists).), 1510 (Primary screen (S1P4 antagonists).), 1853 (Summary AID (S1P4 antagonists).), 1692 (Dose response screen (S1P4 antagonists).)]; type: functional
T4 sequence (O95977 whole entry): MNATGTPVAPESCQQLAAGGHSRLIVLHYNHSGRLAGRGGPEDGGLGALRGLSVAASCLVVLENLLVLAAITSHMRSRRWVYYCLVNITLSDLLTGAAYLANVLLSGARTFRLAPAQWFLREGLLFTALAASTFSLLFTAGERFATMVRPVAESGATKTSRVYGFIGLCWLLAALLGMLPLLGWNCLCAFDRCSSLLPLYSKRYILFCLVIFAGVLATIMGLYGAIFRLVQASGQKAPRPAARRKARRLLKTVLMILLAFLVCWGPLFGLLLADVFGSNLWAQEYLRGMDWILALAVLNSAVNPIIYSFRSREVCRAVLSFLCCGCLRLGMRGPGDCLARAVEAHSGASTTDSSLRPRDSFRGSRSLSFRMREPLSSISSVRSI

[27] = target: T4, Sphingosine 1-phosphate receptor 4; test: Fluorescence dose response cell-based high throughput screening assay for antagonists of the Sphingosine 1-Phosphate Receptor 4 (S1P4). [Related pubchem assays: 1524 (Confirmation in triplicates.), 1510 (Primary screen.)]; type: functional
[28] = target: Sphingosine 1-phosphate receptor 1 (Homo sapiens, UniProt P21453); type: functional;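 also: Tango beta-arrestin reporter U2OS cells stimulated with S1P near its EC80; inhibitor potency meaning antagonism of receptor activation by the natural agonist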
[29] = target: T5, Heat shock factor protein 1 (Mus musculus, UniProt P38532); test: HSF1 potentiators in luciferase reporter cells, confirmation, cell-based, NIH3T3, luminescence, dose retest (AID 435004); type: functional;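 also: stress induced by proteasome inhibitor MG132 added 30 min after compound; luciferase reporter driven by HSF1 response element in NIH3T3 cells; actives raise luminescence as potentiators of the MG132 stress response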
T5 sequence (P38532 whole entry): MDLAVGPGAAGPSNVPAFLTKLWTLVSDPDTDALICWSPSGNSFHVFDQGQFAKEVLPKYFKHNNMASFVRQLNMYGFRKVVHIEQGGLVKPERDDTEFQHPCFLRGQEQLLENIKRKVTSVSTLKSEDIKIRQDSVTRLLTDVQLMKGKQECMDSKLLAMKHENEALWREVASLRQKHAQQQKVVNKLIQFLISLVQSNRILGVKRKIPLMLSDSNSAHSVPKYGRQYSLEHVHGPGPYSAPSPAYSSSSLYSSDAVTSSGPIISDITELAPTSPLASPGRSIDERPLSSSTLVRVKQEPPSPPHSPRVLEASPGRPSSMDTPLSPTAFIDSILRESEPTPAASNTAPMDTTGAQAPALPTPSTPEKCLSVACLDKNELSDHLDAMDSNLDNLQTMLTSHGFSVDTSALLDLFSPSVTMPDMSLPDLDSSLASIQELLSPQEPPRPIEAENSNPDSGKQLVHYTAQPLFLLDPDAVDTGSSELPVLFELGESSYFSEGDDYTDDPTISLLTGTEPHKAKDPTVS

Vero [30] = test: cells; type: functional; conditions: Chlorocebus sabaeus
[31] = target: E3 ubiquitin-protein ligase Mdm2 (Homo sapiens, UniProt Q00987); test: enhancers of MDM2-luciferase reporter signal, concentration-effect titration, project on inhibitors of MDM2 ubiquitin ligase, cellular assay, luminescent readout, 384-well plate format (AID 1394); type: functional;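 also: MDM2 E3 inhibitors raise luminescence so EC50 is for signal enhancement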
Vero [32] = test: cytotoxicity of synthesized analogs in Vero cells, SAR follow-up, cytotoxicity control for West Nile virus antiviral project, cell-based, set II (AID 2402); type: functional; conditions: Chlorocebus sabaeus
[33] = target: NAD-dependent protein deacylase sirtuin-5, mitochondrial (Homo sapiens, UniProt Q9NXA8); test: SIRT5 desuccinylase inhibitors, dose response, biochemical, fluorescence imaging, cherry-pick, set 5 (AID 720591);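 also: desuccinylation of succinyl peptide AMC substrate read as fluorescence after trypsin release; potency of inhibitors that lower fluorescence and may act on trypsin instead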
NADPH oxidase 1 = target: T6, NADPH oxidase 1 (Homo sapiens, UniProt Q9Y5S8); test: Late-stage luminescence-based cell-based dose response assay to identify inhibitors of NADPH oxidase 1 (NOX1): Synthesized analogs.; type: functional
T6 sequence (Q9Y5S8 whole entry): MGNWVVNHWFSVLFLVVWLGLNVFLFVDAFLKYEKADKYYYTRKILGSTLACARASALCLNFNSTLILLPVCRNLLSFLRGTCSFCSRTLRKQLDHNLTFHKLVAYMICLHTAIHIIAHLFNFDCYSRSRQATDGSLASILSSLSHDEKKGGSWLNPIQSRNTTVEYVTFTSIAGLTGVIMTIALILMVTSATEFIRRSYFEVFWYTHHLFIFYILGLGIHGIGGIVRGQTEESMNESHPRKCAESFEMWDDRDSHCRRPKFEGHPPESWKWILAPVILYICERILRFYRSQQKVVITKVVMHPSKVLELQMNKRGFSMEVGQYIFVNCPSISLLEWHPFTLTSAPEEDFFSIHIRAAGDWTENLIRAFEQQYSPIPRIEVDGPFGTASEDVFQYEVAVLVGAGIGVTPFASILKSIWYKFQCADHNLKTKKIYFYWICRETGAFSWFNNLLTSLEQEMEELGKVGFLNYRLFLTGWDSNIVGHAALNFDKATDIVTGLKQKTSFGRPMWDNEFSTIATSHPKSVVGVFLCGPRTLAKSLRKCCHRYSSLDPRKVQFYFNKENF

Sphingosine 1-phosphate receptor 1, sequence (P21453 whole entry): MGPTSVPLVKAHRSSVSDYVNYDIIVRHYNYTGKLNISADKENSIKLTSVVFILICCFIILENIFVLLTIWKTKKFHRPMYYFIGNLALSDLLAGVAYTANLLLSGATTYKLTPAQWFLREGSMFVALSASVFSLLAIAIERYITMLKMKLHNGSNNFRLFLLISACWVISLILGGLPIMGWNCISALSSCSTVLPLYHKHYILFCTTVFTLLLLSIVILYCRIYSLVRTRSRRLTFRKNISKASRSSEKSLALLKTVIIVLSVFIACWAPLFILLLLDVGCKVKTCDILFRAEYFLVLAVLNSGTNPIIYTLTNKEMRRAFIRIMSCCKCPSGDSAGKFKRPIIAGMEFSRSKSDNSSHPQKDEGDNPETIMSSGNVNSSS
Luciferin 4-monooxygenase, sequence (P08659 whole entry): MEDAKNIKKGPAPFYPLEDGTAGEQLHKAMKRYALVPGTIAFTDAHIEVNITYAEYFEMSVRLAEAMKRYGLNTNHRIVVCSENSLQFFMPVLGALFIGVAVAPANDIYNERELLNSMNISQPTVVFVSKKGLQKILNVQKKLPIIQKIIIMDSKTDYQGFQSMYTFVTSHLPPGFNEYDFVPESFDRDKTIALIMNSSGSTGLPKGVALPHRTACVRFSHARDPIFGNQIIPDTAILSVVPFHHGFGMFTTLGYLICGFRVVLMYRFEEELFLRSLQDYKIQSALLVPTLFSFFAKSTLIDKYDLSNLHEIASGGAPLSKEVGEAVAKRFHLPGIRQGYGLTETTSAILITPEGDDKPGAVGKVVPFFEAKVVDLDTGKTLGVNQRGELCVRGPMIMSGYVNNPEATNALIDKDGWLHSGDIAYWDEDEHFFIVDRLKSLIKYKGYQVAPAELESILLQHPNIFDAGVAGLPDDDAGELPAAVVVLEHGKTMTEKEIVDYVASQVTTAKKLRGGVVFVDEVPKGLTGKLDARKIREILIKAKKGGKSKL
G-protein coupled receptor 183, sequence (P32249 whole entry): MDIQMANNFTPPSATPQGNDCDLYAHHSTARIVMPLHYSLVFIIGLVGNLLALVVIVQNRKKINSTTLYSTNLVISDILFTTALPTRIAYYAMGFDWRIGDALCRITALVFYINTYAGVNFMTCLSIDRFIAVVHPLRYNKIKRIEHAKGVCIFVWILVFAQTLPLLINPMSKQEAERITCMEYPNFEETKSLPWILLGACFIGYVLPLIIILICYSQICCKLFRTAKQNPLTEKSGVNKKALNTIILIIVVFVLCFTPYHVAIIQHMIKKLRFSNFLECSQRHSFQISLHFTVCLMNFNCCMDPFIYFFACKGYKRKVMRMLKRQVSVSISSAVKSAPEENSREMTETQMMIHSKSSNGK
NAD-dependent protein deacylase sirtuin-5, mitochondrial, sequence (Q9NXA8 whole entry): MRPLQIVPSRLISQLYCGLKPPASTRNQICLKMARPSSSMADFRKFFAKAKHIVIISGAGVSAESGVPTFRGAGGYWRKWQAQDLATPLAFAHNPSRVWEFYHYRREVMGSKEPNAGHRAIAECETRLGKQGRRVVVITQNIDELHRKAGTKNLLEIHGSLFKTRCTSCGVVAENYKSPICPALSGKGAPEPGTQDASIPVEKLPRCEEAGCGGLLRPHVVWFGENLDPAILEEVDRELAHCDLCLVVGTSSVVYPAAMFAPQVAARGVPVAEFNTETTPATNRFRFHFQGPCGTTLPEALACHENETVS
E3 ubiquitin-protein ligase Mdm2, sequence (Q00987 whole entry): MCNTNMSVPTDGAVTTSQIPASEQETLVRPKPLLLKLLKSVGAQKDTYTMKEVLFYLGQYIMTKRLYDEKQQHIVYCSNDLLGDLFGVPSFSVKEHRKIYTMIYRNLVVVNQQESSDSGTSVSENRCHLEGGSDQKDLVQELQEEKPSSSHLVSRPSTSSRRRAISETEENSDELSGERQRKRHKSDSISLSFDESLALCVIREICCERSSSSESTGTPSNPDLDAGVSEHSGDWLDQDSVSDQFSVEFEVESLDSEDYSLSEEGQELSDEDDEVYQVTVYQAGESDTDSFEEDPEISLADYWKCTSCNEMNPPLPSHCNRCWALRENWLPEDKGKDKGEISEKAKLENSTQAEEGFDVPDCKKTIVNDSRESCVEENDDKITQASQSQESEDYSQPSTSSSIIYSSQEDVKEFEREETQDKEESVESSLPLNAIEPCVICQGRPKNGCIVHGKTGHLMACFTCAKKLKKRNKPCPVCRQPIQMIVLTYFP

O=C(/C=C/c1ccc(Br)cc1)N1CCN(C(=O)c2ccc(C(F)(F)F)cc2)CC1
IC50 [1]: 1.88 nM (active)

COc1ccc2c3c([nH]c2c1)[C@H](CO)NCC31CCN(C(=O)Nc2ccccc2F)CC1
AC50 [2]: 1.52 µM (active)

CCCCCCCCCCCCCCCC[N+](C)(C)Cc1ccccc1 [CETALKONIUM CHLORIDE]
IC50 [3]: > 10 µM (inactive)
IC50 [4]: > 10 µM (inactive)

COc1ccc(NC(=O)c2ccc(-c3ccc([N+](=O)[O-])cc3)o2)cc1
IC50 [5]: > 100 µM (active)
AC50 [6]: > 52 µM (inactive)
AC50 [7]: > 52 µM (inactive)

Cc1cc(C(=O)N2CCc3ccccc32)n(-c2ccccc2)n1
EC50 (Transthyretin): > 167 µM (inactive)

CCCCn1/c(=N/C(=O)c2ccc3c(c2)OCO3)c(C#N)cc2c(=O)n3cccc(C)c3nc21
IC50 [8]: > 20 µM (inactive)

O=[N+]([O-])c1ccc2oc(-c3cccc(O)c3)nc2c1
IC50 [9]: > 67.5 µM (inactive)
EC50 [10]: > 67.5 µM (inactive)
EC50 [11]: > 67.6 µM (inactive)
EC50 (cells [12]): > 67.6 µM (inactive)

CCC(C)(c1nnnn1-c1c(C)cccc1C)N(N=O)c1ccccc1Cl (configuration not stated)
CC50 [13]: > 40 µM (active)

COC(=O)Cn1c2c(c3cc(C)ccc31)CCCC2
IC50 (Bcl-2-related protein A1 [14]): > 100 µM (not active)
IC50 (Bcl-2-related protein A1 [15]): > 100 µM (not active)

Cc1cccc(NC(=O)c2c(O)c3cccc4c3n(c2=O)CCC4)n1
IC50 (Heat shock protein HSP90): > 50 µM

OC[C@H]1Nc2ccc(-c3ccccc3)cc2[C@H]2[C@@H]1CCN2Cc1ccc(F)cc1
AC50 [16]: 46.4 µM (active)
AC50 [17]: 1.25 µM (active)

c1ccc(-c2nc(NC3CCCCC3)c3ccccc3n2)cc1
IC50 [18]: 19.1 µM (active)
IC50 [19]: > 80 µM (inactive)

Cc1ccc(OCCn2cnc3ccccc32)c(C(C)C)c1
AC50 [20]: 24.5 µM (active)
AC50 (cells [21]): 39.8 µM (active)

O=C(C=C=Nc1ccccc1)C(=O)N=C=Cc1ccccc1
IC50 [22]: 1.91 µM (active)
EC50 [23]: > 112 µM (not active)
EC50 [24]: 47 µM (active)
CC50 [25]: 16.6 µM (active)
IC50 [26]: 4.55 µM (not active)
IC50 [27]: 972 nM (active)
IC50 [28]: > 49.8 µM (not active)
EC50 [29]: 5.61 µM (inconclusive)
CC50 (Vero [30]): 18.9 µM (active)

CCOC(=O)N1C/C(=C\c2ccccc2)C(=O)/C(=C/c2ccccc2)C1
EC50 [31]: 610 nM (active)
CC50 (Vero [30]): 23 µM (active)

OC1c2c(F)cccc2N=C2CCCCCN21 (configuration not stated)
CC50 (Vero [32]): > 200 µM (active)

CCOc1ccc(CCN2C(=O)C(=O)N([C@@H](Cc3ccccc3)CN3CCC[C@@H]3CN3C(=O)C(=O)NC[C@@H]3Cc3ccc(O)cc3)C[C@@H]2Cc2ccccc2)cc1
AC50 [33]: > 30 µM (inactive)

COC(=O)Nc1ccc2c(c1)N(C(=O)CCCl)c1ccccc1S2
IC50 (NADPH oxidase 1): > 50 µM (not active)
